Test results reported in patent US20260248852A1, “SYNTHETIC ANTIGEN RECEPTORS FOR COVALENT IMMUNE RECRUITERS AND METHODS AND USES THEREOF” (McMaster University, priority 2022, published 2026).
“Also recorded” adds a separate entry of the source.

Legend:
[1] = system: Anti-DNP TAC T cells (anti-DNP scFv containing T-cells); test: Labeling of Anti-DNP TAC ABT cells with CIR/(N)CIR, Streptavidin-PE flow cytometry; format: binding, human; settings: 1 uM; for labeling time course (binding): 10 nM, 100 nM, up to 3 hours at room temperature, washed; for covalent binding and labeling of T cells (Streptavidin-PE): Anti-DNP TAC ABT cells, overnight at 4 degrees, washed 3 times
Experimental: (§1) Labeling with CIR/(N)CIR: ABT-cells were labelled overnight at 4 degrees in T-cell media with 1 uM of either DNP-Acyl Imidazole-Desthiobiotin or DNP-Desthiobiotin. DNP-Glycine competitor was also added to some conditions with at 200 uM as a competitor to assess labelling specificity. After the overnight incubation the samples were washed 3 times with FACs buffer to remove any non-covalently bound molecule and stained with Streptavidin-PE to assess labelling. The samples were also stained with near IR Live/Dead, anti-CD4 Pacific Blue, and anti-CD8 Alexa fluor 700 to allow for appropriate gating on live ABT-cells. The samples were assessed for Streptavidin-PE labelling via flow cytometry.
For labeling time-course studies, T-cells were incubated with varying concentrations (10 nM, 100 nM, 1 uM) of either DNP-Acyl Imidazole-Desthiobiotin or DNP-Desthiobiotin for different time periods up to 3 hours at room temperature in FACs buffer. The “0” hour time point was the final time point and accounts for the 5-minute period needed to spike in CIR/(N)CIR and spin down to stop labelling. After adding DNP-Acyl Imidazole-Desthiobiotin or DNP-Desthiobiotin to all time points the cells were washed 3 times and stained for flow cytometry analysis as described above.
as §1, with “either DNP-SuFEx-Desthiobiotin,” for “either”, “αβ T-cells.” for “ABT-cells.”

[2] = system: Anti-DNP DAP12-SAR GDT cells; test: Labeling time course of Anti-DNP DAP12-SAR GDT cells with CIR/(N)CIR; format: binding, human; settings: 10 nM, 100 nM, 1 uM, up to 3 hours
Experimental: (§2) Engineered GDT-cells: PBMCs were seeded at 4E6 cells per well in a 24 well G-Rex plate in the presence of 1 ug/ml zoledronate and 1.5 ng/ml human IL2. Three days later, the cells were incubated overnight in a 24 well non tissue culture treated plate that was pre coated with retronectin and retrovirus supernatant containing viruses encoding either the Anti-DNP DAP12-SAR or the Anti-DNP CD28 CAR. The cells were then transferred back to the G-Rex plate and cultured for a further 11 days at which point, the cell product was collected, CD4/CD8 T cells were removed by magnetic selection and the purified engineered GDT cells were cryopreserved.
(§3) Flow cytometry: To assess the fraction of GDT cells which express the Anti-DNP synthetic antigen receptor, the cells were stained with the following antibodies/fluorophores: Myc biotin, streptavidin PE, vδ2 APC, TCR ab FITC, and CD3 BV605. The CD3 BV605, TCR ab FITC, and Vδ2 APC were used to specifically gate on Vδ2 GDT-cells. The anti-Myc biotin and streptavidin PE secondary were used to assess transduction level.
(§4) For labeling time-course studies, T-cells were incubated with varying concentrations (10 nM, 100 nM, 1 uM) of either DNP-Acyl Imidazole-Desthiobiotin or DNP-Desthiobiotin for different time periods up to 3 hours at room temperature in FACs buffer. […]

[3] = system: Anti-DNP CD28 CAR GDT cells; test: Labeling time course of Anti-DNP CD28 CAR GDT cells with CIR/(N)CIR; format: binding, human; settings: 10 nM, 100 nM, 1 uM, up to 3 hours
Experimental: as §2, §3, §4

[4] = system: PSMA transduced HEK-293 cells; test: CD69 upregulation of DNP-TAC T cells following stimulation with HEK-293 PSMA cells; format: cell-based, human; settings: DNP-TAC T cells pre labelled 6 hours; co-culture overnight
Experimental: The cells were co-cultured together overnight at 37 degrees. To stop the activation, 20 mM EDTA was added and incubated for 15 minutes. The cells were spun down, media was aspirated, and the cells were stored in 200 μL of cRPMI at 4 degrees prior to staining. The cells were stained with Live-Dead Zombie Aqua, anti-CD3 BV605, anti-CD4 Pacific Blue, anti-CD8 Alexa Fluor 700, anti-NGFR Viobright FITC, and anti-CD69 BV650. Upon staining the cells were run on the Beckman Coulter Cytoflex flow cytometer and analyzed for CD69 expression.

[5] = system: PSMA transduced HEK-293 cells; test: IFN-gamma / TNF-alpha production of Anti-DNP TAC ABT cells following stimulation with HEK-293 PSMA cells; format: cell-based, human; settings: Anti-DNP TAC ABT cells prelabelled 6 hours; co-culture 4 hours
Experimental: The cells were co-cultured together for 4 hours at 37 degrees. Golgi plug was added prior to the co-incubation to prevent cytokine secretion. To stop the activation 20 mM EDTA was added and incubated for 15 minutes. The cells were spun down, media was aspirated, and the cells were stored in 200 μL of cRPMI overnight at 4 degrees. The next day, the cells were surface stained with anti-CD4 Pacific Blue, anti-CD8 Alexa Fluor 700, and anti-NGFR Viobright FITC. The cells were then fixed and permeabilized using a fix/perm buffer solution. The cells were then intracellularly stained with anti-CD3 BV605, anti-TNF-alpha PE-CY7, and anti-IFN-gamma APC. Cells were then run on the Beckman Coulter Cytoflex flow cytometer. The percent of cells positive for TNF-alpha and IFN-gamma, as well as cells positive for both were recorded in the table for the separate CD4 and CD8 T-cell populations.

[6] = system: PSMA-positive LNCaP cells; test: Anti-DNP TAC ABT cell mediated killing of LNCaP cells (Incucyte); format: cell-based, human
Experimental: Measuring T cell mediated killing of LNCaP cells: LNCaP prostate cancer cells, which are prostate specific membrane antigen (PSMA) positive, were engineered with Nuclight Red lentivirus to produce cells with nuclear localized red fluorescence to allow for ease of imaging in these experiments. […] The 3 components were co-cultured for 3 days with 4 images per well taken every 6 hours. Samples were run in triplicate. The number of LnCap cells per well at each time point was calculated using the Incucyte cell by cell analysis software and plotted. The area under the growth curve was used as a metric for tumor cell growth for this figure. The larger the area, the greater the tumor cell growth that occurred over the 3 days. The area under the curve for the LnCap control and each condition were used to calculate the % cytotoxicity.

[7] = system: PSMA-positive LNCaP cells; test: Anti-DNP GDT cell mediated killing of LNCaP cells (Incucyte); format: cell-based, human
Experimental: Measuring T cell mediated killing of LNCaP cells: LNCaP prostate cancer cells, which are prostate specific membrane antigen (PSMA) positive, were engineered with Nuclight Red lentivirus to produce cells with nuclear localized red fluorescence to allow for ease of imaging in these experiments. […] Samples were run in triplicate. The number of LNCaP cells per well at each time point was calculated using the Incucyte cell by cell analysis software and plotted. The area under the growth curve was used as a metric for tumor cell growth for this figure. The larger the area, the greater the tumor cell growth that occurred over the 3 days. The area under the curve for the LNCaP control and each condition were used to calculate the % cytotoxicity.

293-PSMA cells [8] = test: CD69 and Nur77 expression of activated ABT cells with 293-PSMA cells; format: cell-based, human; settings: Anti-DNP TAC-T cells; 10 nM and 1 nM
From the text: Cells were stained for surface marker expression via Pacific Blue-conjugated mouse anti-human CD4, and AlexaFluor700-conjugated mouse anti-human CD8a, VioBright FITC-conjugated mouse anti-human NGFR, and anti-huCD69, fixed and permeabilized in Permiabilization concentrate diluted in permeabilization diluent, and stained intracellularly with PE-conjugated mouse anti-mouse Nur77.

[9] = system: HEK293-PSMA cells (PSMA expressing); test: Cytokine production of engineered ABT cells following stimulation with HEK293-PSMA cells; format: cell-based, human
Experimental: Measuring cytokine production following stimulation with HEK-293 cells: In a 96 well round bottom plate, 4E5 HEK293-PSMA cells (PSMA expressing) or HEK293-WT cells were incubated with 4E5 Anti-DNP TAC ABT cells, Anti-DNP DAP12 SAR ABT cells, or Anti-CD28 CAR ABT-cells. […] To stop the activation 20 mM EDTA was added and incubated for 15 minutes. Cells were stained for surface expression of CD4 and CD8, fixed and permeabilized in Cytofix/Cytoperm buffer, and stained with APC-conjugated mouse anti-human interferon-gamma, and FITC-conjugated mouse anti-human tumor necrosis factor-alpha. Cells were then run on the Beckman Coulter Cytoflex flow cytometer. The percent of cells positive for tumor necrosis factor-alpha and interferon-gamma for CD4 and CD8 T-cell populations were graphed separately showing the same overall trends.

293-PSMA cells [10] = test: Proliferation of adapter functionalized engineered ABT cells (CellTrace Violet); format: cell-based, human
Experimental: Each engineered T cell was also cultured in media alone as a control to compare to. All proliferation assay samples were incubated for 3 days at 37° C. and 5% CO2. Cells were then stained with Live/Dead Fixable Near-IR stain, PerCP-Cy5.5-conjugated mouse anti-human CD8a, Alexa Fluor 700-conjugated mouse anti-human CD4, VioBright FITC-conjugated mouse anti-human NGFR, and BV605-conjugated mouse anti-human CD3. Flow cytometry data were acquired.

CC1NC(=O)NC1CCCCCC(=O)NCCOCCOC(=O)NCCOCCNC(=O)CNc1ccc([N+](=O)[O-])cc1[N+](=O)[O-] (stereo not shown) [DNP-Desthiobiotin, reference compound]
labeling time course (binding) [1]: complete absence of binding | covalent binding and labeling of T cells (Streptavidin-PE) [1]: cannot | labeling time course (binding) [2]: minimal binding | labeling time course (binding) [3]: minimal binding

O=C(O)CC[C@H](NC(=O)N[C@@H](CCCCNC(=O)NCCOCCOCCOCCOCCOCCOCCOCCOC(=O)NCCOCCNC(=O)CNc1ccc([N+](=O)[O-])cc1[N+](=O)[O-])C(=O)O)C(=O)O [PSMA-(N)CIR, DNP-Glutamate-Urea-Lysine, reference compound]
T cell activation based on upregulation of CD69 [4]: failed to demonstrated any evidence of activation | production of IFN-gamma and TNF-alpha [5]: failed to demonstrated any evidence of activation | killing of LNCaP cells ([6]; E:T 8:1, 15.63 nM to 125 nM, 3 days): unable to direct T cell cytotoxicity; also recorded: did not promote killing of LNCaP cells at any concentration | concentration effective at engaging tumor killing ([6]; E:T 8:1, 3 days): > 125 nM | killing of LNCaP cells at limiting concentration ([7]; Anti-DNP CD28 CAR GDT cells, 10 nM or 1 nM adapter): inability of the PSMA-(N)CIR to effectuate killing | tumor killing over a range of concentrations ([7]; Anti-DNP CD28 CAR GDT cells, 15 nM to 250 nM): diminished at lower levels | killing of LNCaP cells ([7]; Anti-DNP CD28 CAR GDT cells, 125 nM adapter): could direct T cell cytotoxicity; also recorded: displayed tumor growth control | killing of LNCaP cells ([7]; Anti-DNP DAP12-SAR GDT cells, 125 nM adapter): unable to direct T cell cytotoxicity | adapter concentration at which tumor killing is observed ([7]; Anti-DNP DAP12 SAR GDT cells): > 125 nM | killing of LNCaP cells ([7]; Anti-DNP DAP12 SAR GDT cells, 250 nM (highest concentration)): only weak killing | killing of LNCaP cells after preincubation and wash ([7]; Anti-DNP DAP12 SAR and Anti-DNP CD28 CAR GDT cells, 1 uM adapter for 6 hours, washed, then co-culture): Only the T cells incubated with the PSMA-CIR retained the ability to kill | killing of LNCaP cells ([7]; CD28 CAR GDT cells, 10 nM adapter): unable to elicit any killing | LNCaP killing over a range of concentrations ([7]; both Anti-DNP DAP12-SAR GDT cells and Anti-DNP CD28 CAR GDT cells, 15.6 nM-250 nM): killing diminished with lower concentrations | T cell activation (Nur77, CD69) (293-PSMA cells [8]): only the PSMA-CIR could elicit T cell activation | cytokine production ([9]; CD28-CAR T cells, highest concentration (100 nM)): equivalent levels of cytokine production | cytokine production ([9]; DAP12-SAR T cells, 1, 10, 100 nM): some cytokine production was observed with higher concentrations; also recorded: could be activated by both CIR and (N)CIR | cytokine production ([9]; TAC T cells, 1, 10, 100 nM): no cytokine production | T cell proliferation (percent divided) (293-PSMA cells [10]; Anti-DNP12 SAR T cells, 1 nM or 10 nM): did not proliferate | T cell proliferation (percent divided) (293-PSMA cells [10]; Anti-DNP DAP12 SAR T cells, 1 nM, 10 nM, or 100 nM): little proliferation | T cell proliferation (percent divided) (293-PSMA cells [10]; Anti-DNP DAP12 SAR T cells, 100 nM): modest proliferation | T cell proliferation (percent divided) (293-PSMA cells [10]; Anti-DNP TAC T cells, 1, 10, 100 nM, 3 days): failed to proliferate above background; also recorded: little proliferation

CC1NC(=O)NC1CCCCCC(=O)NCCOCCOCCOCCOC(=O)n1cnc(CCNC(=O)CNc2ccc([N+](=O)[O-])cc2[N+](=O)[O-])c1 (stereo not shown) [DNP-Acyl Imidazole-Desthiobiotin]
labeling time course (binding) [1]: rapid covalent binding | time to maximal loading of DNP-TAC T cells [1]: several hours | time until all Anti-DNP TAC T cells are loaded [1]: ≤ 30 min | covalent binding and labeling of T cells (Streptavidin-PE) [1]: can covalently bind and label | labeling time course (binding) [2]: rapid covalent binding | labeling time course (binding) [3]: rapid covalent binding
